From US9988380B2, “Quorum sensing inhibitors” (priority 2013, dated 2018) come the findings set out here.

In general, inhibition refers to the change of the read-out against control, counted positive when it falls.

One assay has as its target T1, LasR (Pseudomonas aeruginosa, UniProt P25084).
T1 construct: expressed in transfected cells; host or cells: E. coli lasB-gfp(ASV) reporter strain
The assay can be described thus: AHL competition assay between QSI and OdDHL in heterologous E. coli lasB-gfp(ASV) strain. It counts as cell-based, P. aeruginosa. On the procedure: E. coli Competition Assay between QSI compounds and OdDHL. The E. coli lasB-gfp(ASV) reporter strain was used for the competition assay, which was performed in a similar manner to the P. aeruginosa LasR inhibition assay. OdDHL and the QSI to be studied were added to the wells of a microtitre plate containing ABTGC media. Wells without OdDHL and/or QSI were included as controls. An overnight culture of E. coli lasB-gfp(ASV) strain, grown in LB medium at 37° C. with shaking, was diluted to an OD600 of 0.2, and 100 μl of bacterial suspension was added to each well of the microtitre plate. […] GFP and OD600 readings were obtained as described above for the P. aeruginosa LasR inhibition assay.
AHL Competition Assay Using the Heterologous E. coli lasB-gfp (ASV) strain. The five QSI candidates were tested for their specificity in inhibiting the LasR receptor by incubating these QSIs with the E. coli lasB-gfp (ASV) reporter strain. LasR is under the control of the Lac promoter and is constitutively expressed, and only LasR can activate gfp expression in this system.

The next assay relates to rhlA-gfp(ASV) expression. Put plainly: Inhibition of the Rhl QS system, rhlA-gfp(ASV) reporter in PAO1 wild-type and lasR mutant. It counts as cell-based, P. aeruginosa. The method, then: Inhibition of the Rhl and PQS QS systems in wild-type PAO1 and PAO1 lasR mutant. Wild-type P. aeruginosa PAO1 strains harboring either the rhlA-gfp(ASV) reporter or the pqsA-gfp(ASV) reporter, and a P. aeruginosa PAO1 lasR mutant harboring either the rhlA-gfp(ASV) reporter or the pqsA-gfp(ASV) reporter were used for this experiment (Refer to FIG. 11 for strain information). Overnight cultures of these four strains were diluted 100-fold in ABTGC media within 96-well microtitre plates to a final volume of 200 μL per well. Each of the five QSIs was added in triplicate to a final concentration of 50 μM. 0.5% DMSO was used as a negative control. The microtitre plate was incubated at 37° C. in a Tecan Infinite 200 Pro plate reader where GFP and OD600 readings were measured at 15 min intervals.
Effect of QSIs on Rhl and Pqs Quorum-Sensing Systems. In order to address the problem of the specificity of present compounds, the five identified QSI compounds were tested to see if they had any effect on the rhl and pqs systems. The five QSIs were tested against a PAO1 wild-type and a PAO1 lasR mutant harboring either the rhlA-gfp (ASV) bioreporter or the pqsA-gfp (ASV) bioreporter. The rhlA system is dependent on the RhlR/I system. By doing so, we were able to determine if a QSI is able to inhibit the other two QS systems (i.e. rhl and pqs) in a lasR-dependent/independent manner (FIG. 8).

The structures appear in SMILES notation. Where two headings read alike, the source gives them in different places.

T1 sequence (P25084 whole entry): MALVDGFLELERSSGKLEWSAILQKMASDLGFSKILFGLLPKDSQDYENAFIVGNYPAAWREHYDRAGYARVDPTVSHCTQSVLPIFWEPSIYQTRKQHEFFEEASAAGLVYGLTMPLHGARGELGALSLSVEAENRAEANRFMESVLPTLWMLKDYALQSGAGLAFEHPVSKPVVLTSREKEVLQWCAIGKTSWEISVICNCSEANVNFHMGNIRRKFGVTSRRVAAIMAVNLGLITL

For `N=c1[nH]c(=O)c2nn[nH]c2[nH]1` [Compound G1, 5-imino-4,6-dihydro-3H-1,2,3-triazolo[5,4-d]pyrimidin-7-one], the “relative fluorescence (GFP/OD600)” value turned out to be 711.5 on LasR (320 nM OdDHL with 100 μM G1); 438.1 on LasR (100 μM G1 and no OdDHL). For the same compound, the “specific inhibition of LasR activity in the competition assay” value at LasR (E. coli lasB-gfp(ASV), with OdDHL) is listed as “specifically inhibit LasR activity”. On LasR (in the presence of 320 nM OdDHL), the “concentration sufficient in inhibiting OdDHL-LasR induction of gfp expression” value was found to be 1.56 µM. In addition, the inhibition at 100 µM was found to be 30.2% on LasR (read-out: inhibition as compared to the control without G1, 100 μM G1, in the absence of OdDHL) and 46.9% at LasR (read-out: inhibition as compared to the control without G1, 100 μM G1, in the presence of 320 nM OdDHL). Besides, the “inhibition of rhlA-gfp expression” value in the assay on rhlA-gfp(ASV) expression (PAO1 lasR mutant, 50 μM QSI) worked out at 46.5%; in the assay on rhlA-gfp(ASV) expression (wild-type PAO1, 50 μM QSI) it was 23.1%. In addition, in the assay with rhlA-gfp(ASV) expression (data not shown), the “induction of the rhl QS system” value is “delay the induction of the rhl QS system”.
